Measurements reported in patent US20130096054A1, “LATENT HUMAN IMMUNODEFICIENCY VIRUS REACTIVIATION” (priority 2010, published 2013).
Like-named read-outs stand apart in the source and are kept apart here. Where a SMILES comes first, the peptide text is derived from it. The star is where a group is joined. Cbz = O=C(OCc1ccccc1)*

How the values were obtained:
[1] = tested on: latently HIV-1 infected CA5 T cells; conditions: for priming effect on HIV-1 reactivation by sub-optimal dose of HRF: pretreatment with increasing concentrations, then sub-optimal HRF
Description: CA5 T cells were pretreated with increasing concentrations of dactinomycin (DM) (FIG. 11A), the DNA intercalator daunorubicin (DR) (FIG. 11B), or the transcription inhibitors DRB (FIG. 11 C) and α-amanitin (FIG. 11D) (concentrations indicated). The cells were then left unstimulated (white circles) or activated with a sub-optimal concentration of HRF (black circles). Reactivation levels were determined as the percentage of GFP-positive cells 24 hours after stimulation. Viability of the cells correlates with the size of the symbol (size range adjusted to 5-95%).
Infection levels in the cell cultures were monitored by flow cytometric analysis of EGFP expression. Flow cytometric analysis was performed on a GUAVA EasyCyte (Millipore; Billerica, Mass.), or a LSRII (Becton & Dickinson; Franklin Lakes, N.J.).
Bacteria from various sources were isolated on TSA II agar plates containing 5% sheep blood. Bacterial isolates were then grown in RPMI 1640 medium supplemented with 10% FBS. After two days of incubation at 37° C. bacteria were pelleted and resuspended in RPMI medium to an optical density (OD600) of 8, aliquoted and frozen at −80° C. Unless otherwise indicated, Massilia timonae was grown in RPMI 1640 medium supplemented with 10% FBS. Typically, medium was inoculated with Massilia timonae from frozen stocks to an OD600 of 0.01. After 48 hours at 37° C., the culture was centrifuged at 3200 g to separate bacteria from the culture medium. Bacteria were resuspended in fresh medium to an OD600 of 8 and frozen to be used as references and stock cultures. The supernatant was then centrifuged at 10,000 g for 20 minutes and sterilized by passage through an 0.2 μm PVDF filter with low protein binding ability. HRF activity was determined by its ability to reactivate latent HIV-1 infection in CA5 cells. Only supernatants of which 6 μl reactivated infection in at least 60% of CA5 cells were used to study HRF properties.
(§1) Infection levels in the cell cultures were monitored by flow cytometric (FCM) analysis of GFP expression. FCM analysis was performed on a GUAVA EasyCyte (GUAVA Technologies, Inc.; Millipore; Billerica, Mass.) and a BD FACSCalibur or a LSR11 (Becton & Dickinson; Franklin Lakes, N.J.). Cell sorting experiments were performed using a FACSAria™ Flow Cytometer (Becton&Dickinson). Data analysis was performed using either CellQuest (Becton&Dickinson) or GUAVA Express (GUAVA Technologies, Inc.).
To identify the optimal concentration of dactinomycin, CA5 T cells were pretreated with increasing concentrations of dactinomycin (0.0001 and 1 μg/ml), and then left untreated or stimulated with a sub-optimal concentration of HRF or TNF-α. […] Twenty four hours after activator addition, levels of HIV-1 reactivation were determined as the percentage of GFP-positive cells using flow cytometric analysis, which allowed for the simultaneous determination of cell viability.

[2] = tested on: latently HIV-1 infected J89GFP T cells; experiment: HIV-1 reactivation in latently HIV-1 infected J89GFP T cells (flow cytometry / HTS); assay type: cell-based; conditions: 10 ng/ml PMA, three J89GFP populations
Description: as §1

[3] = tested on: latently HIV-2 infected J2574 reporter T cells (HIV-2 7312A); experiment: Reactivation of latent HIV-2 infection in J2574 reporter T cells; assay type: cell-based; conditions: GFP-negative sorted population
Description: J2574 reporter T cells were infected with HIV-2 7312A and a latently infected cell population was established (>90% latently infected cells). The cell population was then pretreated with varying concentrations of dactinomycin (0-8 ng/ml) for 18 hours and then either left untreated (C) or stimulated with a sub-optimal dose of HRF, which by itself triggered reactivation in 10% of the cells. Reactivation levels were determined 24 hours post HRF activation by quantifying the level of GFP-positive cells using flow cytometric analysis.
J2574 reporter T cells were generated by retrovirally transducing Jurkat T cells with a HIV-1 reporter construct (p2574) in which the HIV-1 LTR controls the expression of GFP. The HIV-1 LTR and the GFP gene are separated by a 2,500 base pair (bp) spacer element. Lentiviral particles were produced by transfecting 293T cells with p2574 and supplying gag-pol-rev-tat in trans. VSV-G was used as viral envelope protein. Following lentiviral transduction of Jurkat cells, all cells that spontaneously expressed GFP were removed by cell sorting. The GFP-negative population was then activated with PMA to identify all cells that would harbor an inducible LTR-GFP-LTR integration event. Cells that turned GFP-positive following stimulation were again selected by cell sorting. GFP expression in this population ceased after a few days leaving a population of GFP-negative reporter cells. The amount of founder cells for this population is calculated to represent >50,000 individual integration events.
To determine the ability of dactinomycin to prime a latent HIV-2 infection, a latently HIV-2 infected population of GFP reporter T cells were tested. Briefly, to create the latent HIV-2 infected population, J2574 reporter cells were infected with HIV-2 7312A and a population of latently HIV-2 infected cells was generated by removing the actively infected, GFP-positive cells using a fluorescence activated cell sorter.

[4] = tested on: HIV-1 LTR (integrated LTR-EGFP construct, NOMI cells); experiment: Tat-independent activation of integrated LTR-GFP construct in NOMI reporter T cells; assay type: cell-based; conditions: 24 hours
Description: (§2) FIGS. 6A-6C show HRF triggers suboptimal functional induction of NF-κB dependent gene expression. […] The HIV-1 reactivating kinetics were determined by stimulating CA5 T cells with optimal concentrations of HRF, phorbol 12-myristate 13-acetate (PMA) and tumor necrosis factor-α (TNF-α) and analyzing HIV-1 reactivation as a function of EGFP-expression over a period of 48 hours. Data for all agents are depicted as the percentage of EGFP-positive cells in the total cell population. […] To test the ability of HRF to mediate Tat-independent activation of the HIV-1 LTR, NOMI cells (HIV-1 reporter cell line with an integrated LTR-EGFP construct) were stimulated with increasing concentrations of PMA (0.01-10 ng/ml), TNF-α (0.003-30 μg/ml) and HRF supernatant (0.3-100 μl). The level of LTR-induction was then measured as EGFP-expression detectable after 24 hours as determined by flow cytometric analysis. Arrows indicate the concentrations at which the respective stimulus would have triggered full HIV-1 reactivation in the latently HIV-1 infected CA5 T cell line. […] 293T cells were transfected with several NF-κB dependent promoter constructs and then stimulated with either TNF-α (10 μg/ml) or HRF (25 μl). Promoter induction was measured as total EGFP expression. […]

[5] = tested on: chronically actively infected T cell lines JNLG#35 and JNLG#44; experiment: Active HIV-1 transcription in chronically actively infected GFP-reporter T cells (GFP MCF); assay type: cell-based; conditions: 48 hours after addition
Description: Changes in HIV-1 transcription levels were determined after 48 hours by measuring GFP mean channel fluorescence intensity (GFP MCF). GFP MCF was plotted over the drug concentration for dactinomycin (FIG. 12A), the DNA intercalators daunorubicin (DM) (FIG. 12B) and rebeccamycin (RM) (FIG. 12C), as well as the transcription inhibitors ICRF-193 (FIG. 12D), DRB (FIG. 12E) and α-amanitin (FIG. 12F). The size of symbols indicates the respective cell viability in the sample (size range adjusted to 5-95%).
For this purpose, each of the compounds was titrated over a relevant range of concentrations on two chronically actively infected T cell lines (JNLG#35 and JNLG#44). These clonal cell lines are infected with a GFP-reporter virus. Forty eight hours after addition of the compounds, the effect of each compound on HIV-1 transcription was determined by flow cytometric analysis quantifying GFP mean channel fluorescence intensity (MCF).

[6] = tested on: NF-κB dependent promoters in 293T cells; experiment: NF-κB dependent promoter GFP constructs transfected into 293T cells; assay type: cell-based
Description: as §2

CC[C@H](C)[C@@H]1NC(=O)CNC(=O)[C@@H]2Cc3c([nH]c4cc(O)ccc34)[S+]([O-])C[C@@H](NC(=O)CNC1=O)C(=O)N[C@@H](CC(N)=O)C(=O)N1C[C@H](O)C[C@H]1C(=O)N[C@@H]([C@@H](C)[C@@H](O)CO)C(=O)N2 (stereo in doubt) [α-amanitin]
cytotoxicity at higher concentrations [1]: high levels of cytotoxicity
effect of higher concentrations on HIV-1 reactivation triggered by HRF or TNF-α [1]: inhibit HIV-1 reactivation
priming effect on HIV-1 reactivation by sub-optimal dose of HRF [1]: None of the inhibitors exerted a priming effect
priming effect on HIV-1 reactivation by sub-optimal dose of HRF ([1]; listed as α-aminitin): did not exhibit any priming effect

OC[C@H]1O[C@@H](n2cnc3cc(Cl)c(Cl)cc32)[C@H](O)[C@@H]1O [DRB, 5,6 dichloro-beta-D-ribofuranosylbenzimidazole]
cytotoxicity at higher concentrations [1]: high levels of cytotoxicity
effect of higher concentrations on HIV-1 reactivation triggered by HRF or TNF-α [1]: inhibit HIV-1 reactivation

CC(=O)NCCCCCCNC(C)=O [HMBA, Hexamethylene bisacetamide]
reactivation levels ([1]; HMBA alone, compared to TNF-α, PMA or HRF): < 40%
cells with reactivated HIV-1 ([1]; HMBA at 3 mM): 15%
cells with reactivated HIV-1 ([1]; HMBA at 9 mM): 35%
compound toxicity ([1]; HMBA at 9 mM): onset of compound toxicity
reactivation ([1]; combination of HMBA and TNF-α): 81%
reactivation ([1]; optimal dose of HMBA alone): 27%
priming of latent HIV-1 infection for reactivation by sub-optimal TNF-α ([1]; sub-toxic concentrations): relatively potent at priming latent HIV-1 infection for full reactivation
optimal concentration as HIV-1 priming agent, prior to onset of drug mediated toxicities ([1]; titration on CA5 T cells): 3 to 10 mM

CC(C)C[C@@H](C=O)NC(=O)[C@H](CC(C)C)NC(=O)[C@H](CC(C)C)NC(=O)OCc1ccccc1 [MG132] (Cbz-Leu-Leu-Leu-aldehyde)
priming effect on HIV-1 reactivation by sub-optimal dose of HRF [1]: did not exhibit any priming effect

CCCCCCCCCCCCCC(=O)O[C@@H]1[C@@H](C)[C@@]2(O)[C@@H](C=C(CO)C[C@]3(O)C(=O)C(C)=C[C@@H]23)[C@@H]2C(C)(C)[C@]12OC(C)=O [PMA, 13-phorbol-12-myristate acetate]
maximum achievable HIV-1 reactivation levels [2]: 90±3%
cells latently infected as revealed by PMA stimulation [3]: > 90%
Tat-independent activation of integrated LTR-GFP construct (GFP expression) [4]: stimulated Tat-independent activation of the integrated LTR-GFP construct

CC[C@@]1(O)C[C@H](O[C@H]2C[C@H](N(C)C)[C@H](O[C@H]3C[C@H](O)[C@H](O[C@H]4CCC(=O)[C@H](C)O4)[C@H](C)O3)[C@H](C)O2)c2c(cc3c(c2O)C(=O)c2c(O)cccc2C3=O)[C@H]1C(=O)OC [aclacinomycin]
priming effect on HIV-1 reactivation by sub-optimal dose of HRF [1]: strong priming effect

CC[C@@]1(O)C(=O)OCc2c1cc1n(c2=O)Cc2cc3ccccc3nc2-1 [camptothecin]
priming effect on HIV-1 reactivation by sub-optimal dose of HRF [1]: None of the inhibitors exerted a priming effect

COc1cccc2c1C(=O)c1c(O)c3c(c(O)c1C2=O)C[C@@](O)(C(C)=O)C[C@@H]3O[C@H]1C[C@H](N)[C@H](O)[C@H](C)O1 [daunorubicin]
effect on active HIV-1 infection / transcription (GFP MCF) [5]: boosted active HIV-1 transcription

O=C1[O][Pt]2([NH][C@@H]3CCCC[C@H]3[NH]2)[O]C1=O [oxaliplatin]
priming effect on HIV-1 reactivation by sub-optimal dose of HRF [1]: not reproduced

CO[C@H]1[C@H](O)[C@@H](O)[C@H](n2c3c(Cl)cccc3c3c4c(c5c6cccc(Cl)c6[nH]c5c32)C(=O)NC4=O)O[C@@H]1CO [rebeccamycin]
priming effect on HIV-1 reactivation by sub-optimal dose of HRF [1]: not reproduced
effect on active HIV-1 infection / transcription (GFP MCF) [5]: boosted active HIV-1 transcription

TNF-α
reactivation ([1]; sub-optimal dose of TNF-α alone): 32%
Tat-independent activation of integrated LTR-GFP construct (GFP expression) [4]: stimulated Tat-independent activation of the integrated LTR-GFP construct
GFP expression driven by NF-κB responsive promoter constructs (IL-8, TNF-α, HIV-1 LTR, three consensus NF-κB sites) ([6]; TNF-α 10 μg/ml or HRF 25 μl): efficiently induced
GFP expression of construct under murine stem cell virus LTR (no NF-κB responsive element) ([6]; control construct): Neither TNF-α nor HRF influenced GFP expression
